Data on one compound can be found in patent US12544444B2, “Administration of tailored feedstock to increase antibiotic susceptibility” (U.S. Government, as represented by the Sec. of Army, c/o …, priority 2018, dated 2026).

Each structure is given as a SMILES string.

For the test, the system named is Clostridium acetobutylicum. Briefly: antibiotic sensitivity test (OD600 after 24 hours in 96-well plate, anaerobic). Type of test: cell-based, Clostridium acetobutylicum strain ATCC 824. The note with it: C. acetobutylicum given oxidized feedstock compared to glucose as feedstock; FIG. 2, after 24 hours. Here is the method: Bacterial culture conditions and strains have been previously published. All strains and cultures were maintained or grown in an atmosphere of 5.0% H2, 5.0% CO2, and 90.0% N2. Clostridium acetobutylicum strain ATCC 824 was obtained from ATCC and cultured using company protocol at 37° C. into Clostridial growth medium or CGM containing 0.75 g KH2PO4, 0.75 g K2HPO4, 1.0 g NaCl, 0.017 g MnSO4.5H2O, 0.70 g MgSO4.7H2O, 0.01 g FeSO4.7H2O, 2.0 g 1-asparagine, 5.0 g yeast extract, 2.0 g (NH4)2SO4, and 0.5% final concentration of desired carbohydrate—D-glucose, D-galacturonic acid, D-gluconic acid—at pH 6.5. Active cultures from initial growth stock were added to potato glucose medium to be maintained and stored as a spore solution. Potato glucose medium or PGM contains per liter of H2O—150 g grated fresh potato, 10 g D-glucose, 0.5 g (NH4)SO4, and 3 g CaCO3. The medium was boiled for 1 hour and strained through gauze before sterilization and use for culture. […]
The protocol for antibiotic sensitivity test was performed as follows in anaerobic conditions: 200 μL of CGM medium containing either 0.5% D-galacturonate or D-glucose was aliquoted into a sterile Costar® 96-well polystyrene flat bottom plate in triplicate per test condition. […] The optical density of the cultures in the wells were measured at 600 nm via a commercially available plate reader.

Take `Cc1ncc([N+](=O)[O-])n1CCO` [metronidazole]: the “antibiotic (metronidazole) susceptibility increase” value is given as “at least two-fold”.
